The values that follow are results of earlier work, collected in patent US20230097323A1, “Method and Devices for Transdermal Delivery of Hydrogen Gas for Therapeutic Purposes” (Hyderm Innovations LLC, priority 2021, published 2023).

For series [1] the following is noted: at ambient temperature.
For series [2] the following is noted: transdermal supply, bag fitted snugly to the skin.

In the case of `[HH]` [hydrogen, Molecular hydrogen], the “solubility of hydrogen in water” value in series [1] is on record as “about 1.6 mg/l”. Moreover, the “time until hydrogen concentration in the skin reaches a plateau” value in series [2] is 40 to 60 min.
